According to patent US20250186365A1, “COMBINATION OF ANTISPASMODIC AND OSMOTIC AGENTS FOR TOPICAL PRODUCTS AND METHOD OF USE THEREOF” (priority 2023, published 2025):
Entries after “also recorded” stand apart in the source; their conditions may differ.

Key:
hind limb muscle = assay: Rat hind limb muscle twitch study; type: in vivo, Sprague-Dawley rats
Procedure: Adverting now to the drawings, FIG. 1 is a schematic diagram of a validated muscle twitch experimental set-up in the present disclosure. Here, anesthetized Sprague-Dawley rats were prepared for muscle contraction assessment of their hind limbs. The hind limbs were shaved and secured at the knee and ankle joints to prevent movement. The distal tendon of the targeted muscle was connected to a high-sensitivity force transducer to measure contractile force with precision. Electrical stimulation was delivered via electrodes positioned on the sciatic nerve to evoke muscle contractions. Vehicle (control study) or 5% w/w of HD was topically applied to the dermal area corresponding to the muscle group under study, ensuring proximity for local diffusion and effect. A study was performed to evaluate the effects of HD on muscle contractility using a validated in vivo rat model. The experimental setup was meticulously designed to measure the contractile force of the hind limb muscle in response to electrical stimulation of the sciatic nerve, providing a quantitative assessment of muscle relaxation and contraction dynamics in the presence of HD. Anesthetized Sprague-Dawley rats were used for this study, ensuring minimal variability in response to HD application. Hind limbs were shaved and then immobilized at the knee and ankle joints to isolate the effect to the targeted muscle group. […]

[1] = tested on: mouse extensor digitorum longus muscles; assay: Isolated mouse muscle contraction study
Procedure: FIG. 4 is a schematic diagram of a validated isolated mouse muscle contraction study. The mouse muscles were isolated and placed in a physiological buffer within a tissue bath. Muscles were anchored at one end to the chamber floor and connected at the other end to a force transducer. After establishing a baseline response to the electrical field stimulation, HD was added to the buffer at concentrations ranging from 0.01% w/w to 1% w/w, and the impact on muscle contractile force was recorded over time at the fixed frequency of 150 Hz.
This subsequent study was aimed to elucidate the specific effects of HD on isolated muscle tissue from mice, to quantify its potential use as a muscle relaxant. The study's design allowed for the controlled assessment of muscle contractility in a physiological buffer, minimizing external variables present in in vivo models. Muscle Isolation: The mouse extensor digitorum longus muscles were carefully dissected and mounted in a tissue bath super fused with oxygenated physiological buffer, ensuring tissue viability throughout the experiment (FIG. 4). Baseline Measurement: Initial contractile responses were established via electrical field stimulation at various frequencies, setting a comparative baseline for subsequent HD application effects. HD Application: Differing concentrations of HD (ranging from 0.01% to 1%) were introduced to the buffer. The muscle's contractile force (amplitude, which is the maximum contractile force) was determined to assess HD's concentration-dependent effects (FIG. 6). Stimulation Frequency Adjustment: To explore the frequency-dependent nature of HD's action, muscles underwent varied frequencies of electrical stimulation. This protocol is aimed to simulate conditions of sporadic muscle spasms.

hairless mice = assay: Rotarod performance study in hairless mice; type: in vivo; details: 5% HD topical; for time spent on Rota Rod: 20 rpm, vehicle 60 seconds
Procedure: Once the mice were trained, the rod was rotated at a constant speed of 20 rpm. Then the mice were placed on the rotating rod and length of time they could stay on the rotating rod was measured.
The Rotarod study was to investigate the skeletal muscle relaxant effects of HD, specifically its impact on motor coordination and balance in hairless mice. The study was structured to assess both the kinetics of HD's effect over time and its efficacy in inducing muscle relaxation. Efficacy of HD was determined post-treatment at intervals of 15, 30, 60, 75, 90 minutes. Control and Treatment Groups: Each stage included a control group receiving vehicle (Aloe Vera Gel) and a test group treated with HD, 5% w/w HD (0.5 g) in the vehicle (9.5 g Aloe Vera Gel). The topical treatment was applied to the thighs of all four limbs for each mouse.

CCCCC(O)CO (centres unmarked) [HD, 1,2-hexanediol]
duration of muscle contraction (hind limb muscle; 5% w/w HD topical vs vehicle, p<0.05): statistically significant reduction | ability to maintain tetanic contraction during the stimulus period (hind limb muscle; 5% w/w HD topical, electrical stimulation at 150 Hz): failing to maintain tetanic tension; also recorded: unable to maintain tetanic contraction | inhibitory effect on muscle contraction ([1]; 0.01% HD in buffer, 150 Hz): minimal effects; also recorded: No significant inhibitory effect | reduction in contractile force ([1]; 0.1% HD in buffer, 150 Hz, vs vehicle controls): about 44% | torque generation against stimulus frequency ([1]; 0.5% HD vs vehicle, n=5, p<0.01): frequency-dependent decrease in torque generation; also recorded: inhibition is more complete at higher frequencies of stimulation | recovery from the muscle relaxant effect (hairless mice): complete recovery of all mice | time spent on Rota Rod (hairless mice; 30 minutes post treatment): significant decrease | time spent on Rota Rod (hairless mice; 60 minutes post treatment): significant decrease
